Legend:
Type in all cases: in vivo, New Zealand white rabbits
normal conscious rabbits [1] = test: Hyperinsulinaemic euglycaemic glucose clamping (insulin sensitivity), normal rabbits; settings: for Glucose infusion rate: normal rabbit; for M values of hyperinsulinaemic and euglycaemic glucose clamping: normal rabbits
Method: (§1) The experiments are carried out with adult, male New Zealand white rabbits, weighing 3.0-3.5 kg, housed as described in Am. J. Physiol 1994, Heart Circ. Physiol, 35: H2033-H2041 and J. Moll Cell.. Cardiol. 1997, 29: 1977-1983.
(§2) To estimate insulin sensitivity and/or insulin resistance, hyperinsulinaemic (100 eU/ml) euglycaemic (5.5 mM/l) glucose clamping was used. The glucose clamping values (M) were established as values of glucose infusion rates expressed in mg/kg/min to maintain blood glucose level at 5.5 mM/l.

[2] = system: hypercholesterolaemic, insulin resistant conscious rabbits; test: Hyperinsulinaemic euglycaemic glucose clamping (insulin sensitivity), hypercholesterolaemic rabbits; settings: for Glucose infusion rate / M values of hyperinsulinaemic and euglycaemic glucose clamping / synergism (increased effectivity) on glycaemic control: hypercholesterolaemic; for Glucose infusion rate: insulin resistant rabbit; for synergism (increased effectivity) on glycaemic control: drug combined with nitroglycerin; for Insulin sensitivity: percent of means, control = 100
Method: (§3) The experiments are carried out with adult, male New Zealand white rabbits, weighing 3.0-3.5 kg, housed as described in Am. […] Physiol, 35: H2033-H2041 and J. Moll Cell.. Cardiol.
as §2

[3] = system: streptozotocin diabetic rabbits; test: Femoral nerve conduction velocity, streptozotocin diabetes; settings: for Nerve conduction velocity: femoral “C” fibers, streptozotocin diabetic rabbit; for nerve conduction in “C” fibres: streptozotocin-diabetes model, drug alone, nitroglycerin 12-h patch on vs 12-h patch off over three days
Method: as §1
These series of experiments were carried out to verify/exclude sensory neuropathy. Left saphenous nerve conduction velocity was determined as described in Eur J. Pharmacol 1999, 386:83-88.
Streptozotocin (40 mg/kg i.v.) produced a decrease in nerve conduction velocity in femoral “A” and “C” fibres, respectively, as determined 8 weeks after streptozotocin injection. […] The combination of any of these drugs with nitroglycerin yielded an improvement of conduction velocity in streptozotocin-diabetic aminals similar to that seen with nitroglycerin alone.

normal conscious rabbits [4] = test: Ventricular pacing-induced myocardial ischaemia (ST-segment elevation), normal rabbits; settings: for intracavitary ST-segment elevation / anti-ischaemic effect of combination with nitroglycerin: normal conscious rabbits; for intracavitary ST-segment elevation: drug alone; for anti-ischaemic effect of combination with nitroglycerin: nitroglycerin combined with the drug; for ST-segment elevation: normal rabbit
Method: as §3
(§4) The induction of global myocardial ischaemia was based on a method described as above.

[5] = system: hypercholesterolaemic, insulin resistant conscious rabbits; test: Ventricular pacing-induced myocardial ischaemia (ST-segment elevation), hypercholesterolaemic rabbits; settings: for ST-segment elevation / intracavitary ST-segment elevation / ischaemic changes produced by VOP: hypercholesterolaemic; for ST-segment elevation: insulin resistant rabbit; for intracavitary ST-segment elevation / ischaemic changes produced by VOP: insulin resistant rabbits, drug alone
Method: as §3, §4

[6] = system: hypercholesterolaemic, insulin resistant rabbits; test: Femoral nerve conduction velocity, hyperlipidaemia-induced insulin resistance; settings: femoral “C” fibers, hypercholesterolaemic, insulin resistant rabbit
Method: as §3
These series of experiments were carried out to verify/exclude sensory neuropathy.

[7] = placebo patch, troglitazon 70 mg/kg p.os, metformin 5 mg/kg i.v., glibenclamide 1 mg/kg i.v., idazoxan 2 mg/kg i.v., mean
[8] = with active patch (nitroglycerin 0.07 mg/kg/h), alone (Control) or together with the drug, troglitazon 70 mg/kg p.os, metformin 5 mg/kg i.v., glibenclamide 1 mg/kg i.v., idazoxan 2 mg/kg i.v.
[9] = drug alone, troglitazon 70 mg/kg/day p. os over 3 days, metformin 5 mg/kg/day i.v. over 3 days, glibenclamide 1 mg/kg i.v., idazoxan 2 mg/kg i.v.
[10] = placebo patch, troglitazon 70 mg/kg p.os, metformin 5 mg/kg i.v., glibenclamide 1 mg/kg i.v., idazoxan 2 mg/kg i.v.
[11] = with active patch (nitroglycerin 0.07 mg/kg/h), alone (Control) or together with the drug, same doses
[12] = insulin resistant rabbits, in the presence of nitroglycerin and the drug, compared to the placebo patch group
[13] = placebo patch, troglitazon 70 mg/kg p.os, metformin 5 mg/kg i.v., glibenclamide 1 mg/kg i.v., idazoxan 2 mg/kg i.v., healthy untreated 6.2
[14] = with active patch (nitroglycerin 0.07 mg/kg/h), alone (Control) or with the drug
[15] = nitroglycerin patch 0.07 mg/kg/h, metformin 5 mg/kg i.v., troglitazon 70 mg/kg p.os
[16] = metformin 100 mg/kg p.os, ISMN controlled release 5 mg/kg p.os

| Compound | Glucose infusion rate (normal conscious rabbits [1]; [7]) | Glucose infusion rate (normal conscious rabbits [1]; [8]) | M values of hyperinsulinaemic and euglycaemic glucose clamping (normal conscious rabbits [1]; [9]) | Glucose infusion rate [2, 10] | Glucose infusion rate [2, 11] | M values of hyperinsulinaemic and euglycaemic glucose clamping [2, 12] | synergism (increased effectivity) on glycaemic control ([2]; insulin resistant rabbits) | Nerve conduction velocity [3, 13] | Nerve conduction velocity [3, 14] | nerve conduction in “C” fibres [3] | intracavitary ST-segment elevation (normal conscious rabbits [4]) | anti-ischaemic effect of combination with nitroglycerin (normal conscious rabbits [4]) | ST-segment elevation (normal conscious rabbits [4]; [10]) | ST-segment elevation (normal conscious rabbits [4]; [14]) | ST-segment elevation ([5]; placebo patch, same doses) | ST-segment elevation [5, 14] | intracavitary ST-segment elevation / ischaemic changes produced by VOP [5] | Insulin sensitivity [2, 15] | also measured |
| --- | --- | --- | --- | --- | --- | --- | --- | --- | --- | --- | --- | --- | --- | --- | --- | --- | --- | --- | --- |
| COc1ccc(Cl)cc1C(=O)NCCc1ccc(S(=O)(=O)NC(=O)NC2CCCCC2)cc1 [Glibenclamide, glibenclamide] | 14.667 mg/kg/min | 16.500 mg/kg/min | without effect | 8.833 mg/kg/min | 12.333 mg/kg/min | significantly increased | synergism | 2.9 ± 0.24 dm/s | 3.6 ± 0.2 dm/s | Neither troglitazon,nor glibenclamide, idazoxan or metformin produced any effect | without effect | anti-ischaemic effect similar to that produced by nitroglyc erin alone | 1.4 ± 0.08 mV | 0.8 ± 0.08 mV | 1.9 ± 0.40 mV | 1.5 ± 0.13 mV | without effect | – | – |
| Cc1c(C)c2c(c(C)c1O)CCC(C)(COc1ccc(CC3SC(=O)NC3=O)cc1)O2 (centres unmarked) [Troglitazon, troglitazone] | 17.167 mg/kg/min | 19.333 mg/kg/min | – | 11.000 mg/kg/min | 14.667 mg/kg/min | – | – | 3.2 ± 0.3 dm/s | 3.6 ± 0.2 dm/s | – | – | – | 1.1 ± 0.08 mV | 0.7 ± 0.09 mV | 1.6 ± 0.12 mV | 1.08 ± 0.10 mV | – | 122.2% | Nerve conduction velocity ([6]; placebo patch, troglitazon 70 mg/kg p.os): 4.6 ± 0.4 dm/s; Nerve conduction velocity ([6]; with active patch (nitroglycerin 0.07 mg/kg/h), alone (Control) or with troglitazon 70 mg/kg p.os): 5.9 ± 0.2 dm/s |
| CN(C)C(=N)N=C(N)N [Metformin, metformine] | 15.667 mg/kg/min | 19.833 mg/kg/min | without effect | 10.833 mg/kg/min | 14.500 mg/kg/min | significantly increased | – | 3.1 ± 0.2 dm/s | 3.6 ± 0.2 dm/s | Neither troglitazon,nor glibenclamide, idazoxan or metformin produced any effect | without effect | anti-ischaemic effect similar to that produced by nitroglyc erin alone | 1.4 ± 0.08 mV | 0.8 ± 0.10 mV | 2.1 ± 0.13 mV | 1.5 ± 0.08 mV | without effect | 120.4% | Glucose infusion rate (normal conscious rabbits [1]; [16]): 14.80 ± 0.0800 mg/kg/min; M values of hyperinsulinaemic and euglycaemic glucose clamping (normal conscious rabbits [1]; drug alone vs control, isosorbide-5-mononitrate 1 mg/kg/day (Olicard 40), metformin 100 mg/kg/day p.os over 3 days): without any effect; M values of hyperinsulinaemic and euglycaemic glucose clamping (normal conscious rabbits [1]; in the presence of transdermal nitroglycerin combined with the drug): significantly increased; M values of hyperinsulinaemic and euglycaemic glucose clamping (normal conscious rabbits [1]; metformin 100 mg/kg/day p.os in the presence of ISML (ISMN)): significant increase; Glucose infusion rate [2, 16]: 11.70 ± 1.0300 mg/kg/min; M values of hyperinsulinaemic and euglycaemic glucose clamping ([2]; insulin resistant rabbits vs control, ISMN 5 mg/kg/day (Olicard 40), metformin 100 mg/kg/day p.os over 3 days): significant increase; Insulin sensitivity ([2]; ISMN controlled release 5 mg/kg p.os, metformin 100 mg/kg p.os): 120.6% |
| c1ccc2c(c1)OCC(C1=NCCN1)O2 (centres unmarked) [Idazoxan, idazoxane] | 14.667 mg/kg/min | 16.000 mg/kg/min | without effect | 8.500 mg/kg/min | 12.833 mg/kg/min | significantly increased | synergism | 2.8 ± 0.26 dm/s | 3.4 ± 0.2 dm/s | Neither troglitazon,nor glibenclamide, idazoxan or metformin produced any effect | – | anti-ischaemic effect similar to that produced by nitroglyc erin alone | 1.4 ± 0.05 mV | 0.8 ± 0.09 mV | 2.3 ± 0.50 mV | 1.8 ± 0.16 mV | aggravated ischaemic changes | – | ventricular extrasystoles on VOP ([5]; insulin resistant animals, idazoxan 2 mg/kg i.v.): VOP induced ventricular extrasystolesin the insulin resistant animals |

Source: patent US20040068005A1, “Pharmaceutical combinations” (priority 2000, published 2004)
